Calls of active or inactive are those of the source. Cut-off read from the data, not from the text of the source: actives have a measured IC50 and inactives only a lower limit.
Target: Envelope glycoprotein gp160 (Human immunodeficiency virus 1, UniProt Q6QLK5)
Assay: cell-free HIV fusion peptide-binding blockers – biochemical, uHTS, fluorescence dequenching, […] (AID 1986)

Chain of Envelope glycoprotein gp160 (Q6QLK5 whole entry, the tested form may be a part): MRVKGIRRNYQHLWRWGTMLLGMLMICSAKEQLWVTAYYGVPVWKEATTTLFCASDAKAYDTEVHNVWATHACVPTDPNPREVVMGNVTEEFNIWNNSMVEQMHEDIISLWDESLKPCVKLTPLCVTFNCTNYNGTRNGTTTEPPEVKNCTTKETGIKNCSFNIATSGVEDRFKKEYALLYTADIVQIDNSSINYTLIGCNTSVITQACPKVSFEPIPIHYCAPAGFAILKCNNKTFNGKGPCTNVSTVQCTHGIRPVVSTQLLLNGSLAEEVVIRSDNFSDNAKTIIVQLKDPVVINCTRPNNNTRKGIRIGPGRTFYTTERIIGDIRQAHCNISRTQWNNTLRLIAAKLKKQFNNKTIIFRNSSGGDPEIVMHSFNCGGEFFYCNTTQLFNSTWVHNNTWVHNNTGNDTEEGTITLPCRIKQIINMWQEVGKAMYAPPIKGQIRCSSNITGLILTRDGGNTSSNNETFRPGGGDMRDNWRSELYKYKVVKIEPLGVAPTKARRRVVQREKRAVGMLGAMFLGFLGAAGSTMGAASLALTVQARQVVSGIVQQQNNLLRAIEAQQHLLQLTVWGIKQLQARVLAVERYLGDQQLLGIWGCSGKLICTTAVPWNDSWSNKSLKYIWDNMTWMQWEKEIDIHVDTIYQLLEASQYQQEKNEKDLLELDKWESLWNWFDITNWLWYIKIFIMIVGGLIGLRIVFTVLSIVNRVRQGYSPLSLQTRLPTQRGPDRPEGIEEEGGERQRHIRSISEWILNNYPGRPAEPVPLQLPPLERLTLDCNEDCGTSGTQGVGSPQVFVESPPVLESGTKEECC

**Q.** COc1cc(Cl)cc(C(c2c(C(=O)O)[nH]c3ccccc23)c2c(C(=O)O)[nH]c3ccccc23)c1O was tested. Which IC50 did it give?
**A.** 4.81 µM (active)

**Q.** For O=C1N=C(NS(=O)(=O)c2ccccc2)S/C1=C\c1cc([N+](=O)[O-])ccc1O, which IC50 is on record?
**A.** 12.7 µM (active)

**Q.** For N=C1/C(=C/c2ccc(-c3cccc(C(=O)O)c3)o2)C(=O)N=C2SC=C(c3ccccc3)N12, which IC50 is on record?
**A.** 6.34 µM (active)

**Q.** For COc1cc(/C=C2\C(=N)N3N=C(S(C)(=O)=O)SC3=NC2=O)ccc1OS(=O)(=O)c1ccccc1, which IC50 is on record?
**A.** 19.3 µM (active)

**Q.** Which IC50 does the source give for CCS(=O)(=O)C1=NSC2=NC(=O)/C(=C\c3ccc(OS(=O)(=O)c4ccccc4)cc3)C(=N)N21 here?
**A.** 19.9 µM (active)
